Experimental data as given in patent US20260226048A1, “MULTI-CYCLIC IRAK AND FLT3 INHIBITING COMPOUNDS AND USES THEREOF” (CHILDREN'S HOSPITAL MEDICAL CENTER, priority 2023, published 2026).
Positions count from the first letter of the chain named.

Tests used:
FLT3 R834Q = target: T1, FLT3 R834Q (Homo sapiens, UniProt P36888, R834Q); assay: DiscoverX KINOMEscan competition binding assay, FLT3 R834Q; details: 11-point 3-fold dilution
T1 construct: purchased DiscoverX (KINOMEscan); host or cells: E. coli BL21-derived host (T7 phage) or HEK-293
T1 sequence (P36888 27-993 R834Q): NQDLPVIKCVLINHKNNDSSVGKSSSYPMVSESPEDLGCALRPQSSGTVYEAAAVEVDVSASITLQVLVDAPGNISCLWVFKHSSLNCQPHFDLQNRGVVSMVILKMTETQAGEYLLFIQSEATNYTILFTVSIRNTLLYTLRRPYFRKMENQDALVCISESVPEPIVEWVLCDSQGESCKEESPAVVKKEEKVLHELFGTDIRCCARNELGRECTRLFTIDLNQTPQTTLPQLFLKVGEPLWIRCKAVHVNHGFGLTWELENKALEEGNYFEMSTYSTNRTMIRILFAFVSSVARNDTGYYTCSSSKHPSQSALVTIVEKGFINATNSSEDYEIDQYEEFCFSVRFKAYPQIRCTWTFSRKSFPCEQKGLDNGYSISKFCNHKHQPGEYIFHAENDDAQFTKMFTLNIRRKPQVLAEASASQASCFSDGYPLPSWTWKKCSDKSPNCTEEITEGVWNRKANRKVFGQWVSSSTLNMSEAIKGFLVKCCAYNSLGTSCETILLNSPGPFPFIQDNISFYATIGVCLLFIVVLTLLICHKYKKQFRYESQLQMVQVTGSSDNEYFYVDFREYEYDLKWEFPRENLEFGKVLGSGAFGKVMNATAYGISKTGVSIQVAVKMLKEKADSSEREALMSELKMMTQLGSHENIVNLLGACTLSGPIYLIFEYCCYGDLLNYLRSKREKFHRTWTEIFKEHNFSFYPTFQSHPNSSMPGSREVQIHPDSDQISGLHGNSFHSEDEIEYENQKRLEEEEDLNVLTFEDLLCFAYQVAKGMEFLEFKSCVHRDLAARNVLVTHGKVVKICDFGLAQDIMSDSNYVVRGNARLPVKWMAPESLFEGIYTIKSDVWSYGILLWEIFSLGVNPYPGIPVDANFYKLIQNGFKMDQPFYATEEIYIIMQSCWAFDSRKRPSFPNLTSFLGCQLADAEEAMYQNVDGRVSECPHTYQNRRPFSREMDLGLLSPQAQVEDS
From the text: (§1) […]. […] As a result, the data report thermodynamic interaction affinities (Kd values), rather than IC50 values that are dependent on ATP concentrations. The assay uses a DNA-tagged version of the protein kinase, and an immobilized ligand bound to a solid support. Compounds that directly or indirectly prevent kinase binding to the immobilized ligand reduce the amount of kinase captured on the solid support, which is detected using an ultra-sensitive qPCR method. Affinity constants reported from the assay have been reported to be independent of the immobilized ligand used that is coupled to the solid support (See supplemental information in Fabian, M. A. et. al., (2005) Nat. Biotechnol. 23, 329-336; Wodicka, L. M. et. al., (2010) Chem. Biol. 17, 1241-1249.)
(§2) Kinase-tagged T7 phage strains were prepared in an E. coli host derived from the BL21 strain. E. coli were grown to log-phase and infected with T7 phage and incubated with shaking at 32° C. until lysis. The lysates were centrifuged and filtered to remove cell debris. The remaining kinases were produced in HEK-293 cells and subsequently tagged with DNA for qPCR detection. Streptavidin-coated magnetic beads were treated with biotinylated small molecule ligands for 30 minutes at room temperature to generate affinity resins for kinase assays. The liganded beads were blocked with excess biotin and washed with blocking buffer (SeaBlock (Pierce), 1% BSA, 0.05% Tween 20, 1 mM DTT) to remove unbound ligand and to reduce non-specific binding. […] Test compounds were prepared as 111× stocks in 100% DMSO. Kds were determined using an 11-point 3-fold compound dilution series with three DMSO control points. All compounds for Kd measurements are distributed by acoustic transfer (non-contact dispensing) in 100% DMSO. The compounds were then diluted directly into the assays such that the final concentration of DMSO was 0.9%. All reactions were performed in polypropylene 384-well plates. Each was a final volume of 0.02 mL. […] The kinase concentration in the eluates was measured by qPCR.
(§3) Binding constants (Kds) were calculated with a standard dose-response curve using the Hill equation. The Hill Slope was set to −1. Curves were fitted using a non-linear least square fit with the Levenberg-Marquardt algorithm.

FLT3 = target: T2, FLT3 (Homo sapiens, UniProt P36888); assay: DiscoverX KINOMEscan competition binding assay, FLT3; parameters: purchased Reaction Biology (RBC HotSpot); details: 11-point 3-fold dilution
T2 sequence (P36888 27-993): T1 sequence (P36888 27-993 R834Q) with Q808R
From the text: as §1, §2, §3

COc1cc2ncc(-c3nc(N[C@H]4CNCC[C@@H]4F)ncc3F)n2nc1C1COC1 [Compound 92a, 5-fluoro-N-((3S,4S)-4-fluoropiperidin-3-yl)-4-(7-methoxy-6-(oxetan-3-yl)imidazo[1,2-b]pyridazin-3-yl)pyrimidin-2-amine]
Kd (FLT3 R834Q): 0.77 nM
Kd (FLT3): < 0.17 nM

CC(C)(O)c1cn2c(-c3nc(N[C@H]4CNCC[C@@H]4F)ncc3F)cnc2cn1 [Compound 100a, 2-(3-(5-fluoro-2-(((3S,4S)-4-fluoropiperidin-3-yl)amino)pyrimidin-4-yl)imidazo[1,2-a]pyrazin-6-yl)propan-2-ol]
Kd (FLT3 R834Q): 40 nM
Kd (FLT3): 16 nM

CC(C)(O)c1ccc2ncc(-c3nc(N[C@H]4CNCC[C@@H]4F)ncc3F)n2c1 [Compound 46a, 2-(3-(5-fluoro-2-(((3S,4S)-4-fluoropiperidin-3-yl)amino)pyrimidin-4-yl)imidazo[1,2-a]pyridin-6-yl)propan-2-ol]
Kd (FLT3 R834Q): 4.4 nM
Kd (FLT3): 1.2 nM

COc1cc2ncc(-c3nc(N[C@H]4CNCC[C@@H]4F)ncc3F)n2nc1C1CC1 [Compound 1a, 4-(6-cyclopropyl-7-methoxyimidazo[1,2-b]pyridazin-3-yl)-5-fluoro-N-((3S,4S)-4-fluoropiperidin-3-yl)pyrimidin-2-amine]
Kd (FLT3 R834Q): < 0.17 nM
Kd (FLT3): < 0.17 nM

FC(F)COc1cc2ncc(-c3ccnc(N[C@H]4CNCC[C@@H]4F)n3)n2nc1C1CC1 [Compound 4a, 4-(6-cyclopropyl-7-(2,2-difluoroethoxy)imidazo[1,2-b]pyridazin-3-yl)-N-((3 S,4S)-4-fluoropiperidin-3-yl)pyrimidin-2-amine]
Kd (FLT3 R834Q): 0.69 nM
Kd (FLT3): < 0.17 nM

COc1cc2ncc(-c3nc(N[C@H]4CNCC[C@@H]4F)ncc3F)n2nc1C(C)(C)O [Compound 45a, 2-(3-(5-fluoro-2-(((3S,4S)-4-fluoropiperidin-3-yl)amino)pyrimidin-4-yl)-7-methoxyimidazo[1,2-b]pyridazin-6-yl)propan-2-ol]
Kd (FLT3 R834Q): 5.9 nM
Kd (FLT3): 1.1 nM

COc1cc2ncc(-c3nc(N[C@H]4CNCC[C@@H]4F)ncc3F)n2nc1N1CCCS1(=O)=O [Compound 112a, 2-(3-(5-fluoro-2-(((3S,4S)-4-fluoropiperidin-3-yl)amino)pyrimidin-4-yl)-7-methoxyimidazo[1,2-b]pyridazin-6-yl)isothiazolidine 1,1-dioxide]
Kd (FLT3 R834Q): 0.28 nM
Kd (FLT3): < 0.17 nM
